This is an account of results in patent publication US20260070921A1, “COMPOUND, ENDOPLASMIC RETICULUM STRESS INHIBITOR, PHARMACEUTICAL PRODUCT, OPHTHALMIC AGENT, EYE DROPS, COMPOSITION, AND METHOD FOR PRODUCING COMPOUND” (KYOTO UNIVERSITY, priority 2022, published 2026).

This assay deals with HEK293 cells. Kind of assay: Flow cytometry of intracellular assemblies of compound 1 with endocytosis inhibitors. Format: cell-based. To be noted: compound 1 100 μM; chloroquine 100 μM, chlorpromazine 20 μM; 16 h. How it is done: HEK293 cells were seeded in 12-well plates at 3×10^5 cells/well. After 2 hours of incubation at 37° C., cells were treated with compound 1 (100 μM) and 9-(2,2-dicyanovinyl)julolidine (DCVJ, 1.0 μM) in the presence or absence of chloroquine (100 μM), chlorpromazine (20 μM), and genistein ([…]) in DMEM (10% FBS) at 37° C. for 16 hours. Cells were harvested by incubation in 2 mM EDTA/PBS (pH of 7.4) for 10 minutes. Fluorescence of the cells was measured using a BD FACSAria II and analyzed with BD FACSDiva software.

In the case of `CN(C)CCCN1c2ccccc2Sc2ccc(Cl)cc21` [chlorpromazine], the “Reduction of average DCVJ signal (intracellular assemblies of compound 1)” value was “about 30%”. In the case of `CCN(CC)CCCC(C)Nc1ccnc2cc(Cl)ccc12` (centres unmarked) [chloroquine], the “Reduction of average DCVJ signal (intracellular assemblies of compound 1)” value was “about 30%”.
